Test results: PubChem BioAssay (NCI)
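Exposure lasted 48 hours, with cells grown in 96-well plates and compounds tested at five concentrations. Abbreviation: GI50, concentration required for 50% inhibition of growth. At the TGI there is no net growth.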

What was measured:
Experiment in all cases: NCI tumour cell line growth inhibition, 48 h; in the data active = GI50 below about 0.43 µM; inactive = the rest
[1] = tested on: BT-549 breast
[2] = tested on: NCI-H460 lung
[3] = tested on: OVCAR-4 ovarian
[4] = tested on: HOP-62 NSCLC
[5] = tested on: MDA-MB-231 breast
[6] = tested on: CAKI-1 renal
[7] = tested on: K-562 leukemia
[8] = tested on: EKVX NSCLC
[9] = tested on: KM12 colon
[10] = tested on: COLO 205 colon
[11] = tested on: SK-MEL-5 melanoma
[12] = tested on: M14 melanoma
[13] = tested on: RPMI-8226 leukemia
[14] = tested on: HCT-116 colon
[15] = tested on: SW-620 colon
[16] = tested on: T-47D breast
[17] = tested on: HT29 colon
[18] = tested on: MALME-3M melanoma
[19] = tested on: SN12C renal
[20] = tested on: ACHN renal
[21] = tested on: SF-539 CNS
[22] = tested on: NCI/ADR-RES ovarian
[23] = tested on: SK-MEL-28 melanoma
[24] = tested on: PC-3 prostate
[25] = tested on: OVCAR-5 ovarian
[26] = tested on: 786-0 renal
[27] = tested on: IGROV1 ovarian
[28] = tested on: SF-268 CNS
[29] = tested on: SNB-75 CNS
[30] = tested on: SK-OV-3 ovarian
[31] = tested on: MDA-MB-435
[32] = tested on: OVCAR-8 ovarian
[33] = tested on: HL-60(TB) leukemia
[34] = tested on: SNB-19 CNS
[35] = tested on: MCF7 breast
[36] = tested on: CCRF-CEM leukemia
[37] = tested on: SR leukemia
[38] = tested on: RXF 393 renal
[39] = tested on: NCI-H23 lung
[40] = tested on: MOLT-4 leukemia
[41] = tested on: HS 578T breast
[42] = tested on: DU-145 prostate
[43] = tested on: NCI-H226 lung
[44] = tested on: SK-MEL-2 melanoma
[45] = tested on: NCI-H522 lung
[46] = tested on: HOP-92 NSCLC
[47] = tested on: U251 CNS
[48] = tested on: HCC-2998 colon
[49] = tested on: OVCAR-3 ovarian
[50] = tested on: SF-295 CNS
[51] = tested on: UO-31 renal
[52] = tested on: TK-10 renal
[53] = tested on: HCT-15 colon
[54] = tested on: UACC-257 melanoma
[55] = tested on: LOX IMVI melanoma
[56] = tested on: A498 renal
[57] = tested on: A549 NSCLC
[58] = tested on: UACC-62 melanoma

O=C(CCN1CCCC1)Nc1ccc2c(NCc3ccccc3)c3ccccc3nc2c1
2610 nM: TGI [11]
2060 nM: TGI [25]
1590 nM: TGI [5]
active: GI50 [2] 313 nM | GI50 [3] 381 nM | GI50 [5] 377 nM | GI50 [7] 385 nM | GI50 [10] 319 nM | GI50 [13] 411 nM | GI50 [14] 309 nM | GI50 [15] 316 nM | GI50 [17] 324 nM | GI50 [19] 332 nM | GI50 [21] 422 nM | GI50 [25] 424 nM | GI50 [27] 383 nM | GI50 [29] 398 nM | GI50 [34] 408 nM | GI50 [35] 286 nM | GI50 [37] 261 nM | GI50 [38] 349 nM | GI50 [39] 392 nM | GI50 [40] 364 nM | GI50 [42] 394 nM | GI50 [45] 298 nM | GI50 [46] 348 nM | GI50 [47] 395 nM | GI50 [55] 328 nM | GI50 [56] 406 nM | GI50 [57] 352 nM
3300 nM: TGI [54]
1570 nM: TGI [39]
1850 nM: TGI [9] | TGI [28]
1910 nM: TGI [50]
1900 nM: TGI [56]
1830 nM: TGI [34]
inactive: GI50 [1] 1400 nM | GI50 [4] 471 nM | GI50 [6] 1530 nM | GI50 [8] 448 nM | GI50 [9] 439 nM | GI50 [11] 1310 nM | GI50 [12] 657 nM | GI50 [16] 562 nM | GI50 [18] 605 nM | GI50 [20] 465 nM | GI50 [22] 11900 nM | GI50 [23] 1170 nM | GI50 [24] 442 nM | GI50 [26] 684 nM | GI50 [28] 457 nM | GI50 [30] 430 nM | GI50 [31] 481 nM | GI50 [32] 452 nM | GI50 [33] 587 nM | GI50 [36] 493 nM | GI50 [41] 612 nM | GI50 [43] 551 nM | GI50 [44] 598 nM | GI50 [48] 466 nM | GI50 [49] 495 nM | GI50 [50] 494 nM | GI50 [51] 1550 nM | GI50 [52] 802 nM | GI50 [53] 1860 nM | GI50 [54] 1450 nM | GI50 [58] 454 nM
1340 nM: TGI [45]
2080 nM: TGI [44]
1730 nM: TGI [47]
1700 nM: TGI [17] | TGI [29]
2510 nM: TGI [4]
1690 nM: TGI [31]
2020 nM: TGI [48]
1670 nM: TGI [27] | TGI [58]
2220 nM: TGI [20]
1970 nM: TGI [49]
6970 nM: TGI [53]
55000 nM: TGI [22]
6180 nM: TGI [6]
1680 nM: TGI [57]
1580 nM: TGI [21] | TGI [37]
2560 nM: TGI [30]
2890 nM: TGI [16]
2800 nM: TGI [33]
3040 nM: TGI [1]
1440 nM: TGI [15]
2750 nM: TGI [41]
1510 nM: TGI [42]
1310 nM: TGI [14] | TGI [55]
2910 nM: TGI [43]
2190 nM: TGI [46]
2840 nM: TGI [32]
1410 nM: TGI [7]
1520 nM: TGI [19]
4050 nM: TGI [51]
1360 nM: TGI [10]
1630 nM: TGI [3]
1070 nM: TGI [2]
2340 nM: TGI [8]
2490 nM: TGI [23]
3500 nM: TGI [52]
1380 nM: TGI [38]
1180 nM: TGI [35]
2030 nM: TGI [12] | TGI [24] | TGI [40]
1990 nM: TGI [18] | TGI [26]

Fc1ccc(-c2ncn(C3CCNCC3)c2-c2ccnc(Oc3ccc4c(c3)OCO4)n2)cc1
> 25000 nM: TGI [1] | TGI [2] | TGI [3] | TGI [4] | TGI [5] | TGI [6] | TGI [7] | TGI [8] | TGI [9] | TGI [10] | TGI [12] | TGI [13] | TGI [14] | TGI [15] | TGI [16] | TGI [17] | TGI [18] | TGI [19] | TGI [20] | TGI [21] | TGI [22] | TGI [24] | TGI [25] | TGI [26] | TGI [27] | TGI [28] | TGI [29] | TGI [30] | TGI [31] | TGI [32] | TGI [33] | TGI [34] | TGI [35] | TGI [36] | TGI [37] | TGI [38] | TGI [39] | TGI [40] | TGI [41] | TGI [42] | TGI [43] | TGI [44] | TGI [45] | TGI [46] | TGI [47] | TGI [48] | TGI [49] | TGI [50] | TGI [51] | TGI [52] | TGI [53] | TGI [54] | TGI [55] | TGI [56] | TGI [57] | TGI [58]
> 23100 nM: TGI [23]
8400 nM: TGI [11]
inactive: GI50 [1] > 21300 nM | GI50 [2] > 21700 nM | GI50 [3] 19700 nM | GI50 [4] > 25000 nM | GI50 [5] 10500 nM | GI50 [6] > 20900 nM | GI50 [7] > 23100 nM | GI50 [8] > 25000 nM | GI50 [9] > 25000 nM | GI50 [10] 9250 nM | GI50 [11] 3770 nM | GI50 [12] 10400 nM | GI50 [13] > 25000 nM | GI50 [14] 16800 nM | GI50 [15] > 25000 nM | GI50 [16] 12700 nM | GI50 [17] 9620 nM | GI50 [18] 21400 nM | GI50 [19] 16700 nM | GI50 [20] 8820 nM | GI50 [21] > 25000 nM | GI50 [22] > 25000 nM | GI50 [23] 8340 nM | GI50 [24] > 25000 nM | GI50 [25] > 25000 nM | GI50 [26] > 23800 nM | GI50 [27] 13900 nM | GI50 [28] 24400 nM | GI50 [29] > 16100 nM | GI50 [30] 14900 nM | GI50 [31] > 19500 nM | GI50 [32] > 25000 nM | GI50 [33] > 21300 nM | GI50 [34] > 25000 nM | GI50 [35] 9140 nM | GI50 [36] > 25000 nM | GI50 [37] 13600 nM | GI50 [38] 7880 nM | GI50 [39] > 25000 nM | GI50 [40] > 25000 nM | GI50 [41] > 12700 nM | GI50 [42] > 25000 nM | GI50 [43] > 17000 nM | GI50 [44] > 25000 nM | GI50 [45] > 25000 nM | GI50 [46] 5210 nM | GI50 [47] 15300 nM | GI50 [48] 11900 nM | GI50 [49] > 25000 nM | GI50 [50] > 20100 nM | GI50 [51] 7810 nM | GI50 [52] > 25000 nM | GI50 [53] 21100 nM | GI50 [54] 10500 nM | GI50 [55] 12300 nM | GI50 [56] 16000 nM | GI50 [57] 16400 nM | GI50 [58] > 15700 nM
